Experimental data published in patent publication US20080293696A1, “2-Aminoarylcarboxamides Useful as Cancer Chemotherapeutic Agents” (Bayer Pharmaceuticals Corporation, priority 2004, published 2008).
Where a name gives a salt, the structure may show the parent alone.

Tested on: PAKT/PKB (p-(S473) AKT) in H209 small cell lung carcinoma cells stimulated with Stem Cell Factor
Test: PAKT/PKB Cytoblot Assay with H209 cells (SCF-stimulated p-(S473) AKT)
Assay type: cell-based
Settings: Homo sapiens, NCI-H209, compound 1 hour, SCF 25 ng/mL 5 minutes
How it was run: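 H209 SCLC cells kept overnight in RPMI with 0.1% BSA were pretreated 1 h at 37 °C with compound (0.01–10 μM final), then stimulated with SCF 25 ng/mL for 5 min. After formaldehyde/methanol fixation, p-(S473) AKT was detected in-cell with HRP secondary and ECL chemiluminescence, and IC50 was derived.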

[1] = group: between 500 nM and 1 μM (units in value)

Compound COc1ccc(CCNC(=O)c2cc(CNc3ccccc3C(=O)Nc3ccc4c(c3)OC(F)(F)O4)ccn2)cc1 [Example 122, 4-{[(2-{[(2,2-difluoro-1,3-benzodioxol-5-yl)amino]carbonyl}phenyl)amino]methyl}-N-[2-(4-methoxyphenyl)ethyl]pyridine-2-carboxamide] has an IC50 (group: between 1 and 3 μM) of 1000 to 3000 nM.
In the case of O=C(NCCCN1CCCC1=O)c1cc(CNc2ccccc2C(=O)Nc2ccc3c(c2)OC(F)(F)O3)ccn1 [Example 123, 4-{[(2-{[(2,2-difluoro-1,3-benzodioxol-5-yl)amino]carbonyl}phenyl)amino]methyl}-N-[3-(2-oxopyrrolodin-1-yl)propyl]pyridine-2-carboxamide], the IC50 (group: less than 500 nM) is reported as less than 500 nM.
With CCCOCCCNC(=O)c1cc(CNc2ccccc2C(=O)Nc2ccc3c(c2)OC(F)(F)O3)ccn1 [Example 124, 4-{[(2-{[(2,2-difluoro-1,3-benzodioxol-5-yl)amino]carbonyl}phenyl)amino]methyl}-N-(3-propoxypropyl)pyridine-2-carboxamide] the IC50 (group: less than 500 nM) was less than 500 nM.
CCOc1ccc(CCNC(=O)c2cc(CNc3ccccc3C(=O)Nc3ccc4c(c3)OC(F)(F)O4)ccn2)cc1OC [Example 125, 4-{[(2-{[(2,2-difluoro-1,3-benzodioxol-5-yl)amino]carbonyl}phenyl)amino]methyl}-N-[2-(4-ethoxy-3-methoxyphenyl)ethyl]pyridine-2-carboxamide] showed an IC50 (group: between 1 and 3 μM) of 1000 to 3000 nM.
Work on CCOc1cc(CCNC(=O)c2cc(CNc3ccccc3C(=O)Nc3ccc4c(c3)OC(F)(F)O4)ccn2)ccc1OC [Example 126, 4-{[(2-{[(2,2-difluoro-1,3-benzodioxol-5-yl)amino]carbonyl}phenyl)amino]methyl}-N-[2-(3-ethoxy-4-methoxyphenyl)ethyl]pyridine-2-carboxamide] yielded an IC50 (group: between 1 and 3 μM) of 1000 to 3000 nM.
Compound CSCC[C@@H](CO)NC(=O)c1cc(CNc2ccccc2C(=O)Nc2ccc3c(c2)OC(F)(F)O3)ccn1 [Example 127, 4-{[(2-{[(2,2-difluoro-1,3-benzodioxol-5-yl)amino]carbonyl}phenyl)amino]methyl}-N-[(1S)-1-(hydroxymethyl)-3-(methylthio)propyl]pyridine-2-carboxamide] has an IC50 (group: between 1 and 3 μM) of 1000 to 3000 nM.
O=C(NCCc1cccs1)c1cc(CNc2ccccc2C(=O)Nc2ccc3c(c2)OC(F)(F)O3)ccn1 [Example 128, 4-{[(2-{[(2,2-difluoro-1,3-benzodioxol-5-yl)amino]carbonyl}phenyl)amino]methyl}-N-[2-(2-thienyl)ethyl]pyridine-2-carboxamide] gave an IC50 (group: between 1 and 3 μM) of 1000 to 3000 nM.
O=C(NCCc1ccc(O)cc1)c1cc(CNc2ccccc2C(=O)Nc2ccc3c(c2)OC(F)(F)O3)ccn1 [Example 129, 4-{[(2-{[(2,2-difluoro-1,3-benzodioxol-5-yl)amino]carbonyl}phenyl)amino]methyl}-N-[2-(4-hydroxyphenyl)ethyl]pyridine-2-carboxamide] gave an IC50 [1] of 500 to 1000 nM.
For COc1ccc(OCC(O)CNC(=O)c2cc(CNc3ccccc3C(=O)Nc3ccc4c(c3)OC(F)(F)O4)ccn2)cc1 (centres unmarked) [Example 132, 4-{[(2-{[(2,2-difluoro-1,3-benzodioxol-5-yl)amino]carbonyl}phenyl)amino]methyl}-N-[2-hydroxy-3-(4-methoxyphenoxy)propyl]pyridine-2-carboxamide], the IC50 (group: less than 500 nM) was less than 500 nM.
O=C(NCc1ccc(N2CCOCC2)cc1)c1cc(CNc2ccccc2C(=O)Nc2ccc3c(c2)OC(F)(F)O3)ccn1 [Example 133, 4-{[(2-{[(2,2-difluoro-1,3-benzodioxol-5-yl)amino]carbonyl}phenyl)amino]methyl}-N-(4-morpholin-4-ylbenzyl)pyridine-2-carboxamide] was tested, and the IC50 (group: less than 500 nM) was less than 500 nM.
Work on O=C(Nc1ccc2c(c1)OC(F)(F)O2)c1ccccc1NCc1ccnc(NCCO)c1 [Example 134, N-(2,2-difluoro-1,3-benzodioxol-5-yl)-2-[({2-[(2-hydroxyethyl)amino]pyridin-4-yl}methyl)amino]benzamide trifluoroacetate (salt)] yielded an IC50 (group: less than 500 nM) of less than 500 nM.
COCCNc1cc(CNc2ccccc2C(=O)Nc2ccc3c(c2)OC(F)(F)O3)ccn1 [Example 135, N-(2,2-difluoro-1,3-benzodioxol-5-yl)-2-[({2-[(2-methoxyethyl)amino]pyridin-4-yl}methyl)amino]benzamide trifluoroacetate] showed an IC50 (group: less than 500 nM) of less than 500 nM.
Work on COCCCNc1cc(CNc2ccccc2C(=O)Nc2ccc3c(c2)OC(F)(F)O3)ccn1 [Example 136, N-(2,2-difluoro-1,3-benzodioxol-5-yl)-2-[({2-[(3-methoxypropyl)amino]pyridin-4-yl}methyl)amino]benzamide trifluoroacetate] yielded an IC50 (group: less than 500 nM) of less than 500 nM.
O=C(Nc1ccc2c(c1)OC(F)(F)O2)c1ccccc1NCc1ccnc(NCCCO)c1 [Example 137, N-(2,2-difluoro-1,3-benzodioxol-5-yl)-2-[({2-[(3-hydroxypropyl)amino]pyridin-4-yl}methyl)amino]benzamide trifluoroacetate(salt)] was tested, and the IC50 (group: less than 500 nM) was less than 500 nM.
In the case of O=C(Nc1ccc2c(c1)OC(F)(F)O2)c1ccccc1NCc1ccnc(NCCOCCO)c1 [Example 138, N-(2,2-difluoro-1,3-benzodioxol-5-yl)-2-{[(2-{[2-(2-hydroxyethoxy)ethyl]amino}pyridin-4-yl)methyl]amino}benzamide trifluoroacetate(salt)], the IC50 (group: less than 500 nM) is reported as less than 500 nM.
CNc1cc(CNc2ccccc2C(=O)Nc2ccc3c(c2)OC(F)(F)O3)ccn1 [Example 139, N-(2,2-difluoro-1,3-benzodioxol-5-yl)-2-({[2-(methylamino)pyridin-4-yl]methyl}amino)benzamide trifluoroacetate] gave an IC50 (group: less than 500 nM) of less than 500 nM.
CC(C)OCCCNc1cc(CNc2ccccc2C(=O)Nc2ccc3c(c2)OC(F)(F)O3)ccn1 [Example 140, N-(2,2-difluoro-1,3-benzodioxol-5-yl)-2-[({2-[(3-isopropoxypropyl)amino]pyridin-4-yl}methyl)amino]benzamide trifluoroacetate] gave an IC50 (group: less than 500 nM) of less than 500 nM.
CC(C)(CO)CNc1cc(CNc2ccccc2C(=O)Nc2ccc3c(c2)OC(F)(F)O3)ccn1 [Example 141, N-(2,2-difluoro-1,3-benzodioxol-5-yl)-2-[({2-[(3-hydroxy-2,2-dimethylpropyl)amino]pyridin-4-yl}methyl)amino]benzamide trifluoroacetate(salt)] was tested, and the IC50 (group: less than 500 nM) was less than 500 nM.
In the case of NCC(O)CNc1cc(CNc2ccccc2C(=O)Nc2ccc3c(c2)OC(F)(F)O3)ccn1 (centres unmarked) [Example 142, 2-[({2-[(3-amino-2-hydroxypropyl)amino]pyridin-4-yl}methyl)amino]-N-(2,2-difluoro-1,3-benzodioxol-5-yl)benzamidebis(trifluoroacetate)(salt)], the IC50 [1] is reported as 500 to 1000 nM.
CN(C)CCCNc1cc(CNc2ccccc2C(=O)Nc2ccc3c(c2)OC(F)(F)O3)ccn1 [Example 143, N-(2,2-difluoro-1,3-benzodioxol-5-yl)-2-{[(2-{[3-(dimethylamino)propyl]amino}pyridin-4-yl)methyl]amino}benzamidebis(trifluoroacetate)] gave an IC50 (group: less than 500 nM) of less than 500 nM.
O=C(Nc1ccc2c(c1)OC(F)(F)O2)c1ccccc1NCc1ccnc(NCCCN2CCOCC2)c1 [Example 144, N-(2,2-difluoro-1,3-benzodioxol-5-yl)-2-[({2-[(3-morpholin-4-ylpropyl)amino]pyridin-4-yl}methyl)amino]benzamidebis(trifluoroacetate)] gave an IC50 (group: less than 500 nM) of less than 500 nM.
In the case of CN1CCCC1CCNc1cc(CNc2ccccc2C(=O)Nc2ccc3c(c2)OC(F)(F)O3)ccn1 (centres unmarked) [Example 145, N-(2,2-difluoro-1,3-benzodioxol-5-yl)-2-{[(2-{[2-(1-methylpyrrolidin-2-yl)ethyl]amino}pyridin-4-yl)methyl]amino}benzamidebis(trifluoroacetate)], the IC50 (group: less than 500 nM) is reported as less than 500 nM.
O=C(Nc1ccc2c(c1)OC(F)(F)O2)c1ccccc1NCc1ccnc(NCCCn2ccnc2)c1 [Example 146, N-(2,2-difluoro-1,3-benzodioxol-5-yl)-2-{[(2-{[3-(1H-imidazol-1-yl)propyl]amino}pyridin-4-yl)methyl]amino}benzamidebis(trifluoroacetate)] was tested, and the IC50 (group: less than 500 nM) was less than 500 nM.
O=C(Nc1ccc2c(c1)OC(F)(F)O2)c1ccccc1NCc1ccnc(NCCc2c[nH]cn2)c1 [Example 147, N-(2,2-difluoro-1,3-benzodioxol-5-yl)-2-{[(2-{[2-(1H-imidazol-4-yl)ethyl]amino}pyridin-4-yl)methyl]amino}benzamidebis(trifluoroacetate)] gave an IC50 (group: less than 500 nM) of less than 500 nM.
Compound O=C(Nc1ccc2c(c1)OC(F)(F)O2)c1ccccc1NCc1ccnc(NCC2CCCO2)c1 (centres unmarked) [Example 148, N-(2,2-difluoro-1,3-benzodioxol-5-yl)-2-[({2-[(tetrahydrofuran-2-ylmethyl)amino]pyridin-4-yl}methyl)amino]benzamide trifluoroacetate] has an IC50 (group: less than 500 nM) of less than 500 nM.
With O=C(Nc1ccc2c(c1)OC(F)(F)O2)c1ccccc1NCc1ccnc(NCC(O)CO)c1 (centres unmarked) [Example 149, N-(2,2-difluoro-1,3-benzodioxol-5-yl)-2-[({2-[(2,3-dihydroxypropyl)amino]pyridin-4-yl}methyl)amino]benzamidetrifluoroacetate (salt)] the IC50 (group: less than 500 nM) was less than 500 nM.
In the case of O=C(Nc1ccc2c(c1)OC(F)(F)O2)c1ccccc1NCc1ccnc(NCCc2ccccc2)c1 [Example 150, N-(2,2-difluoro-1,3-benzodioxol-5-yl)-2-[({2-[(2-phenylethyl)amino]pyridin-4-yl}methyl)amino]benzamidetrifluoroacetate], the IC50 [1] is reported as 500 to 1000 nM.
For COC(C)C(=O)Nc1cc(CNc2ccccc2C(=O)Nc2ccc3c(c2)OC(F)(F)O3)ccn1 (centres unmarked) [Example 151, N-(2,2-difluoro-1,3-benzodioxol-5-yl)-2-[({2-[(2-methoxypropanoyl)amino]pyridin-4yl}methyl)amino]benzamide], the IC50 (group: less than 500 nM) was less than 500 nM.
CC(=O)Nc1cc(CNc2ccccc2C(=O)Nc2ccc3c(c2)OC(F)(F)O3)ccn1 [Example 152, 2-({[2-(acetylamino)pyridin-4-yl]methyl}amino)-N-(2,2-difluoro-1,3-benzodioxol-5-yl)benzamide] was tested, and the IC50 (group: less than 500 nM) was less than 500 nM.
